Measured values: article PMC10178848, “Modulating fast skeletal muscle contraction protects skeletal muscle in animal models of Duchenne muscular dystrophy” (The Journal of Clinical Investigation, 2023)

Tested on: mdx mouse EDL muscle
Assay: Phosphoprotein array analysis (Cell Signaling Phospho Antibody Array)
Settings: phospho/total, T vs C
Method: mdx mouse EDL muscle was prepared for ex vivo analysis as described (n = 5). Muscles were incubated for 1 hour with DMSO or EDG-5506 (5 μM) and then flash frozen in liquid nitrogen. Tissue preparation and analysis were performed as recommended by the manufacturer (Cell Signaling Phospho Antibody Array, Full Moon Biosystems).

`O=c1ccc(-c2cnc(OCC(F)(F)F)nc2)nn1Cc1cncc(F)c1` [EDG-5506] was tested, and the “Ratio (T/C): Integrin beta-3 (Phospho-Tyr773) to total Integrin beta-3 (Ab-773)” value was 0.8566, the “Ratio (T/C): Interferon-gamma receptor alpha (Phospho-Tyr457) to total Interferon-alpha/beta receptor alpha chain (Ab-466)” value was 0.992 and the “Ratio (T/C): JAK2 (Phospho-Tyr221) to total JAK2 (Ab-1007)” value was 0.5849. The “Ratio (T/C): JunB (Phospho-Ser259) to total JunB (Ab-259)” value was 0.7783, the “Ratio (T/C): LKB1 (Phospho-Thr189) to total LKB1 (Ab-334)” value was 1.099 and the “Ratio (T/C): LYN (Phospho-Tyr507) to total LYN (Ab-507)” value was 1.819. For the same compound, the “Ratio (T/C): Lamin A/C (Phospho-Ser392) to total Lamin A/C (Ab-392)” value was 0.4365, the “Ratio (T/C): MDM2 (Phospho-Ser166) to total MDM2 (Ab-166)” value was 0.7195 and the “Ratio (T/C): MEK1 (Phospho-Ser217) to total MEK1 (Ab-291)” value was 0.8093. For the same compound, the “Ratio (T/C): MEK1 (Phospho-Ser221) to total MEK1 (Ab-291)” value was 1.481, the “Ratio (T/C): MITF (Phospho-Ser73) to total MITF (Ab-73)” value was 0.8065 and the “Ratio (T/C): MSK1 (Phospho-Ser376) to total MSK1 (Ab-360)” value was 1.21. For the same compound, the “Ratio (T/C): Myc (Phospho-Ser62) to total Myc (Ab-58)” value was 0.9423, the “Ratio (T/C): NFkB-p65 (Phospho-Ser311) to total NFkB-p65 (Ab-529)” value was 0.8783 and the “Ratio (T/C): NFkB-p65 (Phospho-Ser529) to total NFkB-p65 (Ab-529)” value was 0.8263. The “Ratio (T/C): NFkB-p100/p52 (Phospho-Ser865) to total NFkB-p100/p52 (Ab-865)” value was 1.159, the “Ratio (T/C): NFkB-p105/p50 (Phospho-Ser337) to total NFkB-p105/p50 (Ab-927)” value was 1.219 and the “Ratio (T/C): P38 MAPK (Phospho-Thr180/Tyr182) to total P38 MAPK (Ab-182)” value was 0.2071. For the same compound, the “Ratio (T/C): P70S6K (Phospho-Ser424) to total P70S6K (Ab-229)” value was 0.7495, the “Ratio (T/C): P70S6K (Phospho-Thr421) to total P70S6K (Ab-229)” value was 1.055 and the “Ratio (T/C): P73 (Phospho-Tyr99) to total P73 (Ab-99)” value was 1.0107. The “Ratio (T/C): P90RSK (Phospho-Thr359/Ser363) to total P90RSK (Ab-359/363)” value was 0.8912, the “Ratio (T/C): PDK1 (Phospho-Ser241) to total PDK1 (Ab-241)” value was 0.9138 and the “Ratio (T/C): PLCG1 (Phospho-Tyr783) to total PLCG1 (Ab-783)” value was 1.902. The “Ratio (T/C): PLK1 (Phospho-Thr210) to total PLK1 (Ab-210)” value was 0.3997, the “Ratio (T/C): PP1 alpha (Phospho-Thr320) to total PP1 alpha (Ab-320)” value was 0.867 and the “Ratio (T/C): PP2A-alpha (Phospho-Tyr307) to total PP2A-alpha (Ab-307)” value was 0.7589. For the same compound, the “Ratio (T/C): PPAR-gamma (Phospho-Ser112) to total PPAR-gamma (Ab-112)” value was 0.8451, the “Ratio (T/C): PTEN (Phospho-Ser380/Thr382/Thr383) to total PTEN (Ab-380)” value was 0.6925 and the “Ratio (T/C): RSK1/2/3/4 (Phospho-Ser221/227/218/232) to total RSK1/2/3/4 (Ab-221/227/218/232)” value was 1.05. The “Ratio (T/C): Raf1 (Phospho-Ser259) to total Raf1 (Ab-43)” value was 0.9472, the “Ratio (T/C): Rb (Phospho-Ser608) to total Rb (Ab-807)” value was 0.5194 and the “Ratio (T/C): Rb (Phospho-Ser807) to total Rb (Ab-807)” value was 0.4329. The “Ratio (T/C): RelB (Phospho-Ser552) to total RelB (Ab-552)” value was 0.7768, the “Ratio (T/C): SHP-2 (Phospho-Tyr542) to total SHP-2 (Ab-542)” value was 0.9242 and the “Ratio (T/C): SRF (Phospho-Ser99) to total SRF (Ab-99)” value was 0.6381. The “Ratio (T/C): STAT2 (Phospho-Tyr690) to total STAT2 (Ab-690)” value was 1.1086, the “Ratio (T/C): STAT3 (Phospho-Tyr705) to total STAT3 (Ab-705)” value was 0.8721 and the “Ratio (T/C): STAT5B (Phospho-Ser731) to total STAT5B (Ab-731)” value was 1.008. The “Ratio (T/C): STAT6 (Phospho-Thr645) to total STAT6 (Ab-645)” value was 0.7953, the “Ratio (T/C): SYK (Phospho-Tyr348) to total SYK (Ab-525)” value was 0.9191 and the “Ratio (T/C): Shc (Phospho-Tyr349) to total Shc (Ab-349)” value was 1.943. The “Ratio (T/C): Smad1 (Phospho-Ser187) to total Smad1 (Ab-465)” value was 1.9576, the “Ratio (T/C): Smad2 (Phospho-Ser467) to total Smad2 (Ab-255)” value was 0.3873 and the “Ratio (T/C): Smad2/3 (Phospho-Thr8) to total Smad2 (Ab-255)” value was 0.779. For the same compound, the “Ratio (T/C): Smad3 (Phospho-Ser213) to total Smad3 (Ab-425)” value was 2.4313, the “Ratio (T/C): Src (Phospho-Tyr418) to total Src (Ab-418)” value was 0.4536 and the “Ratio (T/C): Synuclein alpha (Phospho-Tyr136) to total Synuclein alpha (Ab-125)” value was 1.009. The “Ratio (T/C): Tau (Phospho-Ser235) to total Tau (Ab-235)” value was 0.4913, the “Ratio (T/C): Tau (Phospho-Ser396) to total Tau (Ab-235)” value was 0.4515 and the “Ratio (T/C): Trk B (Phospho-Tyr515) to total Trk B (Ab-515)” value was 0.8791. The “Ratio (T/C): VEGFR2 (Phospho-Tyr1175) to total VEGFR2 (Ab-1214)” value was 0.7882, the “Ratio (T/C): VEGFR2 (Phospho-Tyr1214) to total VEGFR2 (Ab-1214)” value was 1.1348 and the “Ratio (T/C): Zap-70 (Phospho-Tyr319) to total Zap-70 (Ab-319)” value was 0.9346. For the same compound, the “Ratio (T/C): c-Jun (Phospho-Ser73) to total c-Jun (Ab-243)” value was 0.8772, the “Ratio (T/C): eEF2K (Phospho-Ser366) to total eEF2K (Ab-366)” value was 0.5517 and the “Ratio (T/C): eIF2A (Phospho-Ser51) to total eIF2A (Ab-51)” value was 1.082. For the same compound, the “Ratio (T/C): eNOS (Phospho-Ser615) to total eNOS (Ab-1179)” value was 1.215, the “Ratio (T/C): mTOR (Phospho-Ser2481) to total mTOR (Ab-2481)” value was 1.125 and the “Ratio (T/C): p44/42 MAP Kinase (Phospho-Tyr204) to total p44/42 MAP Kinase (Ab-202)” value was 0.9379. For the same compound, the “Ratio (T/C): p53 (Phospho-Ser9) to total p53 (Ab-315)” value was 0.8012, the “Ratio (T/C): p53 (Phospho-Ser15) to total p53 (Ab-315)” value was 0.1195 and the “Ratio (T/C): p53 (Phospho-Ser315) to total p53 (Ab-315)” value was 0.641.
